Data from patent publication US20150315188A1, “COMPOUNDS AND METHODS FOR TREATMENT OF HYPERTENSION” (MEDIVATION TECHNOLOGIES, INC., priority 2012, published 2015).

How the values were obtained:
Parameters in all cases: purchased Milipore (Millipore)
[1] = target: T1, Human adrenergic α2B receptor (Homo sapiens, UniProt P18089); test: Radioligand binding, adrenergic α2B (Protocol Group B); details: Protocol Group B; for Percentage inhibition of ligand binding, Adrenergic α2B (10 nM): 0.01 µM; for Percentage inhibition of ligand binding, Adrenergic α2B (30 nM): 0.03 µM
T1 sequence (P18089 1-450): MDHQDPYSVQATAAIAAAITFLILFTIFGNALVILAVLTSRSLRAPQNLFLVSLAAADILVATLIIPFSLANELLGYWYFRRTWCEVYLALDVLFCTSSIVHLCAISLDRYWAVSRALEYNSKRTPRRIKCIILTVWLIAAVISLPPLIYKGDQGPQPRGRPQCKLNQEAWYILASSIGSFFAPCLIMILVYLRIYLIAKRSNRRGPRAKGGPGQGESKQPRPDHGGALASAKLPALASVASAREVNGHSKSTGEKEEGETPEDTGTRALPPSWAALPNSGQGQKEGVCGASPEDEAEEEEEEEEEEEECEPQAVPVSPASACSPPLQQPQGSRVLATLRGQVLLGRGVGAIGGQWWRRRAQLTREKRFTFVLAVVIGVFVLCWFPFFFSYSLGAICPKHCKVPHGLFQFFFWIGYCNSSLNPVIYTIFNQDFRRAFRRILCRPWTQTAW
Protocol: To evaluate the activity of compounds in radioligand binding assays, Human adrenergic α2B receptor obtained from recombinant cell membrane from Milipore. Binding experiments were carried out in Tris-HCl buffer (50 mM Tris-HCl buffer, pH 7.4, 5 mM Mgcl2, 1 mM Cacl2, 0.2% BSA) as recommended by Milipore. […] Non-specific binding was estimated in the presence of 10 μM Rauwolscine. […] Compounds were screened at various concentrations, using 1% DMSO as vehicle. Biochemical assay results are presented as the percent Inhibition of specific binding in Table B1b, or estimated Ki values in Table B1c.

[2] = target: T2, Human adrenergic α2A receptor (Homo sapiens, UniProt P08913); test: Radioligand binding, adrenergic α2A (Protocol Group B); details: Protocol Group B; for Percentage inhibition of ligand binding, Adrenergic α2A (0.1 μM): 0.1 μM compound
T2 sequence (P08913 1-465): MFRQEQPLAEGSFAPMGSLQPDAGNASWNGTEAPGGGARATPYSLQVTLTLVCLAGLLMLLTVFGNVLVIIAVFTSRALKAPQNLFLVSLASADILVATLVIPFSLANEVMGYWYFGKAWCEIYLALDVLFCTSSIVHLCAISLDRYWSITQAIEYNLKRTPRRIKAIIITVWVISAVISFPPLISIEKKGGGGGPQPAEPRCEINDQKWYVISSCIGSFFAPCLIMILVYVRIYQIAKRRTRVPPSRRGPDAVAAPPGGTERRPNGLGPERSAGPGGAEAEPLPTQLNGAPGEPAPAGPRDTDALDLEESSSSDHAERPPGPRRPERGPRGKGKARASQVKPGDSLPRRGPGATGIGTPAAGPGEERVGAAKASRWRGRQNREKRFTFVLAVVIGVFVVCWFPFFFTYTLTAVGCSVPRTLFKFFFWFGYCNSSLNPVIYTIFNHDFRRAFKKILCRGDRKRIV
Protocol: To evaluate the activity of compounds in radioligand binding assays, Human adrenergic α2A receptor obtained from recombinant cell membrane from Milipore. Binding experiments were carried out in Tris-HCl buffer (50 mM Tris-HCl buffer, pH 7.4, 5 mM Mgcl2, 1 mM Cacl2, 0.2% BSA) as recommended by Milipore. Compounds were incubated with 2 nM [^3H]MK-912 for 60 min at 25° C. Non-specific binding was estimated in the presence of 10 μM Rauwolscine. Receptor proteins were harvested on 0.33% PEI(poly-ethylenemine) soaked GFC filter mat, the specifically bound [^3H]MK-912 were counted to determine total binding. Compounds were screened at various concentrations, using 1% DMSO as vehicle. percent inhibition of specific binding was determined. Biochemical assay results are presented as the percent Inhibition of specific binding in Table B1b, or estimated Ki values in Table B1c.

[3] = target: T3, Human adrenergic α1B receptor (Homo sapiens, UniProt P35368); test: Radioligand binding, adrenergic α1B (Protocol Group B); details: Protocol Group B; for Percentage inhibition of ligand binding, Adrenergic α1B (0.1 μM): 0.1 μM compound; for Percentage inhibition of ligand binding, Adrenergic α1B (0.3 μM): 0.3 μM compound
T3 sequence (P35368 1-520): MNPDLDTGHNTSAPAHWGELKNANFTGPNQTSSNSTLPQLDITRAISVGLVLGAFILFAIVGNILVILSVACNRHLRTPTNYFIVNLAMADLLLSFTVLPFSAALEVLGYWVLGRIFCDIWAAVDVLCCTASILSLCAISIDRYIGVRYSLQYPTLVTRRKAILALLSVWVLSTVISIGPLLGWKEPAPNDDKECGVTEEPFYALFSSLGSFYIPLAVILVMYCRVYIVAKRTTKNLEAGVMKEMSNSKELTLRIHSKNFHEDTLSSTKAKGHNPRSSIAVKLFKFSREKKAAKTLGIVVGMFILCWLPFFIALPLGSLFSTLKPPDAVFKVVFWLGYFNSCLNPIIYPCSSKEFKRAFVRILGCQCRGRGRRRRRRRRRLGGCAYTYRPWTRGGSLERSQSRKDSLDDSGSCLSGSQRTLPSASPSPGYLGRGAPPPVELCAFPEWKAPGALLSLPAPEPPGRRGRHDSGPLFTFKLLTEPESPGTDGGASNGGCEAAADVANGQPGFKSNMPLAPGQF
Protocol: To evaluate the activity of compounds in radioligand binding assays, Human adrenergic α1B receptor obtained from recombinant cell membrane from Milipore. Binding experiments were carried out in Tris-HCl buffer (50 mM Tris-HCl buffer, pH 7.4, 10 mM Mgcl2, 1 mM EDTA) as recommended by Milipore. Compounds were incubated with 0.3 nM [^3H]Prazosin for 60 min at 25° C. Non-specific binding was estimated in the presence of 10 μM prazosin. Receptor proteins were harvested on 0.33% PEI(poly-ethylenemine) soaked GFC filter mat, the specifically bound [^3H]Prazosin were counted to determine total binding. Compounds were screened at various concentrations, using 1% DMSO as vehicle. percent inhibition of specific binding was determined. Biochemical assay results are presented as the percent Inhibition of specific binding in Table B1b, or estimated Ki values in Table B1c.

Row | Structure (SMILES) | Percentage inhibition of ligand binding, Adrenergic α2B (10 nM) ([1]; 10 nM compound) [%] | Percentage inhibition of ligand binding, Adrenergic α2B (30 nM) ([1]; 30 nM compound) [%] | Percentage inhibition of ligand binding, Adrenergic α2B (0.1 μM) ([1]; 0.1 μM compound) [%] | Percentage inhibition of ligand binding, Adrenergic α2A (0.1 μM) [2] [%] | Percentage inhibition of ligand binding, Adrenergic α2A (0.3 μM) ([2]; 0.3 μM compound) [%] | Percentage inhibition of ligand binding, Adrenergic α1B (0.1 μM) [3] [%] | Percentage inhibition of ligand binding, Adrenergic α1B (0.3 μM) [3] [%] | inhibition at 0.01 µM ([1]; 10 nM compound, read-out: Percentage inhibition of ligand binding, Adrenergic α2B (10 nM)) [%] | inhibition at 0.03 µM ([1]; 30 nM compound, read-out: Percentage inhibition of ligand binding, Adrenergic α2B (30 nM)) [%] | inhibition at 0.1 µM ([1]; 0.1 μM compound, read-out: Percentage inhibition of ligand binding, Adrenergic α2B (0.1 μM)) [%] | inhibition at 0.3 µM ([2]; 0.3 μM compound, read-out: Percentage inhibition of ligand binding, Adrenergic α2A (0.3 μM)) [%] | Percentage inhibition of ligand binding, Adrenergic α2A (0.3 μM) ([2]; 0.3 μM compound, 0.3 µM) [%]
1 | Cc1ccc2c(c1)c1c(n2CC(O)c2ccncc2)CN(C)C2CCCC12 (single isomer, unassigned) [36b] | −19 | −14 | −10 | −7 | −5 | 0 | 5 |  |  |  |  | 
2 | Cc1ccc2c(c1)c1c(n2CC(C)(O)c2ccncc2)CC2CCCN2C1 (single isomer, unassigned) [37a] |  |  |  | 14 |  | 26 | 34 | 27 | 50 | 69 | 21 | 
3 | Cc1ccc2c(c1)c1c(n2CC(C)(O)c2ccncc2)CC2CCCN2C1 (single isomer, unassigned) [37b] | 25 | 48 | 75 | 15 |  | 40 | 68 |  |  |  |  | 17
4 | Cc1ccc2c(c1)c1c(n2CC(C)(O)c2ccncc2)CC2CCCN2C1 (single isomer, unassigned) [37c] | 19 | 46 | 73 | −2 |  | 15 | 37 |  |  |  |  | 14
5 | Cc1ccc2c(c1)c1c(n2CC(C)(O)c2ccncc2)CC2CCCN2C1 (single isomer, unassigned) [37d] | 15 | 36 | 68 | 4 |  | 5 | 14 |  |  |  |  | 17
6 | Cc1ccc2c(c1)c1c(n2CC(C)(O)c2ccc(N(C)C)nc2)CCN(C)C1 (single isomer, unassigned) [39a] | 15 | 38 | 62 | 12 |  | 15 | 36 |  |  |  |  | 26
7 | Cc1ccc2c(c1)c1c(n2CC(C)(O)c2ccc(N(C)C)nc2)CCN(C)C1 (single isomer, unassigned) [39b] | 5 | 20 | 32 | 6 |  | 10 | 10 |  |  |  |  | 5

Further lines, results first:

Row | Percentage inhibition of ligand binding, Adrenergic α2B (10 nM) ([1]; 10 nM compound) [%] | Percentage inhibition of ligand binding, Adrenergic α2B (30 nM) ([1]; 30 nM compound) [%] | Percentage inhibition of ligand binding, Adrenergic α2B (0.1 μM) ([1]; 0.1 μM compound) [%] | Percentage inhibition of ligand binding, Adrenergic α2A (0.1 μM) [2] [%] | Percentage inhibition of ligand binding, Adrenergic α2A (0.3 μM) ([2]; 0.3 μM compound) [%] | Percentage inhibition of ligand binding, Adrenergic α1B (0.1 μM) [3] [%] | Percentage inhibition of ligand binding, Adrenergic α1B (0.3 μM) [3] [%] | inhibition at 0.01 µM ([1]; 10 nM compound, read-out: Percentage inhibition of ligand binding, Adrenergic α2B (10 nM)) [%] | inhibition at 0.03 µM ([1]; 30 nM compound, read-out: Percentage inhibition of ligand binding, Adrenergic α2B (30 nM)) [%] | inhibition at 0.1 µM ([1]; 0.1 μM compound, read-out: Percentage inhibition of ligand binding, Adrenergic α2B (0.1 μM)) [%] | inhibition at 0.3 µM ([2]; 0.3 μM compound, read-out: Percentage inhibition of ligand binding, Adrenergic α2A (0.3 μM)) [%] | Percentage inhibition of ligand binding, Adrenergic α2A (0.3 μM) ([2]; 0.3 μM compound, 0.3 µM) [%] | Structure (SMILES)
8 | −9 | 0 |  | 1 |  | 7 | 4 |  |  |  |  | 4 | Cc1cc(C)c2c(c1)c1c(n2CC(C)(O)c2cccnc2)CCN2CCCC12 (single isomer, unassigned) [44c]
9 | −17 | −11 |  | −17 |  | −5 | 0 |  |  |  |  | −16 | Cc1cc(C)c2c(c1)c1c(n2CC(C)(O)c2cccnc2)CCN2CCCC12 (single isomer, unassigned) [44d]
10 | −4 | 16 | 43 | −1 |  | 12 | 35 |  |  |  |  | 12 | Cc1ccc2c(c1)c1c(n2CC(O)c2ccccn2)CC2CCCN2C1 (single isomer, unassigned) [45a]
11 | 4 | 7 | 23 | −3 |  | 18 | 52 |  |  |  |  | 9 | Cc1ccc2c(c1)c1c(n2CC(O)c2ccccn2)CC2CCCN2C1 (single isomer, unassigned) [45b]
12 | 11 | 4 | 19 | 0 |  | −5 | 3 |  |  |  |  | −11 | Cc1ccc2c(c1)c1c(n2CC(O)c2ccccn2)CC2CCCN2C1 (single isomer, unassigned) [45c]
